According to patent publication US20260022143A1, “Cyclic Peptide Inhibitors of IL-23” (JANSSEN PHARMACEUTICA NV, priority 2022, published 2026):
Starred links: 1 amine or outer side, 2 acyl side, 3 side chain; linkers in the order of their positions; H or OH if unused. Positions of bridges follow the written chain, without caps; N, C: chain ends. Non-standard residues stand in square brackets, D forms with d. Residues, ends and D or L forms follow the SMILES beside them. Groups on a side chain read outwards from the residue. *: point of attachment. X46 = CCCCCCCCCCCC(=O)N[C@@H](CCC(=O)NCCOCCOCC(=O)NCCOCCOCC(=O)NCCCC[C@H](NC(=O)COCCOCCNC(=O)COCCOCCNC(=O)CC[C@H](NC(=O)CCCCCCCCCCC)C(=O)O)C(=O)*)C(=O)O; Me3N+(CH2)2O(CH2)2O(CH2)2CO = C[N+](C)(C)CCOCCOCCC(=O)*; Trp(7-Me) = Cc1cccc2c(C[C@H](N)C(=O)O)c[nH]c12; γGlu = O=C(O)[C@H](CCC(=O)[*:2])N[*:1]; 2Nal = N[C@@H](Cc1ccc2ccccc2c1)C(=O)O; PEG6 = NCCOCCOCCOCCOCCOCCOCCC(=O)O; 3Pal = N[C@@H](Cc1cccnc1)C(=O)O; Myristoyl = CCCCCCCCCCCCCC(=O)*; Lys(Me) = CNCCCC[C@H](N)C(=O)O; NMeK = CN[C@@H](CCCCN)C(=O)O; Pen = CC(C)(S)[C@H](N)C(=O)O; Lauroyl = CCCCCCCCCCCC(=O)*; X11 = N=C(N)NCCOCCOCCC(=O)*; X31 = N=C(N)NCCOCCC(=O)*; Thp = NC1(C(=O)O)CCOCC1; X3 = C[N+](C)(C)CCCCC*; AEEA = NCCOCCOCC(=O)O; Sar = CNCC(=O)O

How the values were obtained:
IL-23R = biological target: T1, IL-23R (Homo sapiens, UniProt Q5VWK5); experiment: IL23R Reporter Assay; assay type: cell-based; details: HEK293 cells containing IL-23R, IL-12RP1 and STAT-inducible firefly luciferase reporter; 10 ng/mL IL-23 (EC90); 5 h at 37° C.; read-out: IL23R Reporter Assay
T1 construct: host or cells: HEK293
T1 sequence (Q5VWK5 24-629): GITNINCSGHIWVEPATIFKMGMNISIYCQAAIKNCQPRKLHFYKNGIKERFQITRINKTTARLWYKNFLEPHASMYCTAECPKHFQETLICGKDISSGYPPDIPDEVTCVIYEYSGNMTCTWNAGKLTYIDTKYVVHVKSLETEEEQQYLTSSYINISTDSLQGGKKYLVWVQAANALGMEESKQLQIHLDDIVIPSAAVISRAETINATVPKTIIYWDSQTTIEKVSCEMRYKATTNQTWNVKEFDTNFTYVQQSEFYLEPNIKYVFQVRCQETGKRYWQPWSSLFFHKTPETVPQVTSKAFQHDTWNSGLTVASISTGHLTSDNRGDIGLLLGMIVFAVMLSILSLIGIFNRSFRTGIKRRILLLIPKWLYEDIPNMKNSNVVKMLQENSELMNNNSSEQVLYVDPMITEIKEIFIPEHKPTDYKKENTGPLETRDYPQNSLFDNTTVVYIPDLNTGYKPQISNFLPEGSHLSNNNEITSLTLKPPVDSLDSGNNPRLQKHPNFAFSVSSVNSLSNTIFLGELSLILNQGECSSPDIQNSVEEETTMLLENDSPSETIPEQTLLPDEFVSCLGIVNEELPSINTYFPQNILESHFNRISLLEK

[1] = Exposed Polar Surface Area (EPSA); assay type: physicochemical; details: SFC on Chirex 3014 column; sample 1 mM DMSO stock; read-out: EPSA
Outline: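 SFC retention on a Chirex 3014 (S-valine/(R)-1-(α-naphthyl)ethylamine) column at 35 °C, 4 mL/min, 14 MPa outlet, 5–60% methanol/20 mM ammonium formate gradient in CO2. Retention times converted to EPSA (Å²) via linear calibration with 8 standards; samples from 1 mM DMSO stock, run in duplicate.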

Row | SMILES | IC50 (IL-23R) | EPSA [1]
1 | CCCCCCCCCCCC(=O)N[C@@H](CCC(=O)NCCOCCOCCOCCOCCOCCOCCC(=O)NCCOCCOCC(=O)NCCCC[C@@H](C(N)=O)N(C)C(=O)[C@H](Cc1cccnc1)NC(=O)[C@H](CC(N)=O)NC(=O)[C@H](CCCCN(C)C(C)=O)NC(=O)C1(NC(=O)[C@H](Cc2ccc3ccccc3c2)NC(=O)[C@H](Cc2ccc(OCCCCC[N+](C)(C)C)cc2)NC(=O)[C@H]2NC(=O)[C@H](CCCCNC(C)=O)NC(=O)[C@H](Cc3c[nH]c4c(C)cccc34)NC(=O)[C@H]([C@@H](C)O)NC(=O)[C@H](CC(=O)N(C)C)NC(=O)[C@@H](NC(=O)CCOCCOCC[N+](C)(C)C)C(C)(C)SSC2(C)C)CCOCC1)C(=O)O [compound 360, cPEG3aCO-Pen(3)-N(N(Me)2)-T-7MeW-K(Ac)-Pen(3)-TMAPF-2Nal-THP-K(NMeac)-N-3Pya-NMeK(PEG2PEG6gEC12)-CONH2] ({Me3N+(CH2)2O(CH2)2O(CH2)2CO}-[Pen]D(NMe2)T[Trp(7-Me)]K(Ac)[Pen]Y(X3)[2Nal][Thp][Lys(Me)](Ac)N[3Pal][NMeK]([AEEA-PEG6-γGlu-Lauroyl])-NH2; disulfide 1-6) | 8.4 nM | 166 A^2
2 | CCCCCCCCCCCCCC(=O)N[C@@H](CCC(=O)NCCOCCOCCOCCOCCOCCOCCC(=O)NCCOCCOCC(=O)NCCCC[C@@H](C(N)=O)N(C)C(=O)[C@H](Cc1cccnc1)NC(=O)[C@H](CC(N)=O)NC(=O)[C@H](CCCCN(C)C(C)=O)NC(=O)C1(NC(=O)[C@H](Cc2ccc3ccccc3c2)NC(=O)[C@H](Cc2ccc(OCCCCC[N+](C)(C)C)cc2)NC(=O)[C@H]2NC(=O)[C@H](CCCCNC(C)=O)NC(=O)[C@H](Cc3c[nH]c4c(C)cccc34)NC(=O)[C@H]([C@@H](C)O)NC(=O)[C@H](CC(=O)N(C)C)NC(=O)[C@@H](NC(=O)CCOCCOCC[N+](C)(C)C)C(C)(C)SSC2(C)C)CCOCC1)C(=O)O [compound 361, cPEG3aCO-Pen(3)-N(N(Me)2)-T-7MeW-K(Ac)-Pen(3)-TMAPF-2Nal-THP-K(NMeac)-N-3Pya-NMeK(PEG2PEG6gEC14)-CONH2] ({Me3N+(CH2)2O(CH2)2O(CH2)2CO}-[Pen]D(NMe2)T[Trp(7-Me)]K(Ac)[Pen]Y(X3)[2Nal][Thp][Lys(Me)](Ac)N[3Pal][NMeK]([AEEA-PEG6-γGlu-Myristoyl])-NH2; disulfide 1-6) | 12 nM | 168 A^2
3 | CCCCCCCCCCCC(=O)N[C@@H](CCC(=O)NCCOCCOCC(=O)NCCOCCOCC(=O)NCCCC[C@@H](C(N)=O)N(C)C(=O)[C@H](Cc1cccnc1)NC(=O)[C@H](CC(N)=O)NC(=O)[C@H](CCCCN(C)C(C)=O)NC(=O)C1(NC(=O)[C@H](Cc2ccc3ccccc3c2)NC(=O)[C@H](Cc2ccc(OCCCCC[N+](C)(C)C)cc2)NC(=O)[C@H]2NC(=O)[C@H](CCCCNC(C)=O)NC(=O)[C@H](Cc3c[nH]c4c(C)cccc34)NC(=O)[C@H]([C@@H](C)O)NC(=O)[C@H](CC(N)=O)NC(=O)[C@@H](NC(=O)CCOCCOCC[N+](C)(C)C)C(C)(C)SSC2(C)C)CCOCC1)C(=O)O [compound 371, cPEG3aCO-Pen(3)-N-T-7MeW-K(Ac)-Pen(3)-TMAPF-2Nal-THP-K(NMeac)-N-3Pya-NMeK(PEG2PEG2gEC12)-CONH2] ({Me3N+(CH2)2O(CH2)2O(CH2)2CO}-[Pen]NT[Trp(7-Me)]K(Ac)[Pen]Y(X3)[2Nal][Thp][Lys(Me)](Ac)N[3Pal][NMeK]([AEEA-AEEA-γGlu-Lauroyl])-NH2; disulfide 1-6) | 5.5 nM | 182 A^2
4 | CCCCCCCCCCCC(=O)N[C@@H](CCC(=O)NCCOCCOCC(=O)NCCOCCOCC(=O)NCCCC[C@H](NC(=O)COCCOCCNC(=O)COCCOCCNC(=O)CC[C@H](NC(=O)CCCCCCCCCCC)C(=O)O)C(=O)NCCOCCOCC(=O)NCCOCCOCC(=O)NCCCC[C@@H](C(N)=O)N(C)C(=O)[C@H](Cc1cccnc1)NC(=O)[C@H](CC(N)=O)NC(=O)[C@H](CCCCN(C)C(C)=O)NC(=O)C1(NC(=O)[C@H](Cc2ccc3ccccc3c2)NC(=O)[C@H](Cc2ccc(OCCCCC[N+](C)(C)C)cc2)NC(=O)[C@H]2NC(=O)[C@H](CCCCNC(C)=O)NC(=O)[C@H](Cc3c[nH]c4c(C)cccc34)NC(=O)[C@H]([C@@H](C)O)NC(=O)[C@H](CC(=O)N(C)C)NC(=O)[C@@H](NC(=O)CCOCCOCC[N+](C)(C)C)C(C)(C)SSC2(C)C)CCOCC1)C(=O)O [compound 372, cPEG3aCO-Pen(3)-N(N(Me)2)-T-7MeW-K(Ac)-Pen(3)-TMAPF-2Nal-THP-K(NMeac)-N-3Pya-NMeK(PEG2PEG2K(PEG2PEG2gEC12)2)-CONH2] ({Me3N+(CH2)2O(CH2)2O(CH2)2CO}-[Pen]D(NMe2)T[Trp(7-Me)]K(Ac)[Pen]Y(X3)[2Nal][Thp][Lys(Me)](Ac)N[3Pal][NMeK]([AEEA-AEEA-X46])-NH2; disulfide 1-6) | 20 nM | 203 A^2
5 | CC(=O)N(C)CCCC[C@H](NC(=O)C1(NC(=O)[C@H](Cc2ccc3ccccc3c2)NC(=O)[C@H](Cc2ccc(OCCCCC[N+](C)(C)C)cc2)NC(=O)[C@H]2NC(=O)[C@H](CCCCNC(=O)CCOCCOCC[N+](C)(C)C)NC(=O)[C@H](Cc3c[nH]c4c(C)cccc34)NC(=O)[C@H]([C@@H](C)O)NC(=O)[C@H](CC(=O)N(C)C)NC(=O)[C@@H](NC(=O)CCOCCOCC[N+](C)(C)C)C(C)(C)SSC2(C)C)CCOCC1)C(=O)N[C@@H](CC(N)=O)C(=O)N[C@@H](Cc1cccnc1)C(=O)N(C)CC(=O)N(C)C [compound 384, cPEG3aCO-Pen(3)-N(N(Me)2)-T-7MeW-K(cPEG3a)-Pen(3)-TMAPF-2Nal-THP-K(NMeAc)-N-3Pya-Sar-CON(Me)2] ({Me3N+(CH2)2O(CH2)2O(CH2)2CO}-[Pen]D(NMe2)T[Trp(7-Me)]K(Me3N+(CH2)2O(CH2)2O(CH2)2CO)[Pen]Y(X3)[2Nal][Thp][Lys(Me)](Ac)N[3Pal][Sar]-NMe2; disulfide 1-6) | 1.4 nM | 157 A^2
6 | CCCCCCCCCCCC(=O)N[C@@H](CCC(=O)NCCOCCOCC(=O)NCCOCCOCC(=O)NCCCC[C@@H]1NC(=O)[C@H](Cc2c[nH]c3c(C)cccc23)NC(=O)[C@H]([C@@H](C)O)NC(=O)[C@H](CCCCNC(=O)COCCOCCNC(=O)COCCOCCNC(=O)CC[C@H](NC(=O)CCCCCCCCCCC)C(=O)O)NC(=O)[C@@H](NC(=O)CCOCCOCC[N+](C)(C)C)C(C)(C)SSC(C)(C)[C@@H](C(=O)N[C@@H](Cc2ccc(OCCCCC[N+](C)(C)C)cc2)C(=O)N[C@@H](Cc2ccc3ccccc3c2)C(=O)NC2(C(=O)N[C@@H](CCCCN(C)C(C)=O)C(=O)N[C@@H](CC(N)=O)C(=O)N[C@@H](Cc3cccnc3)C(=O)N(C)CC(=O)N(C)C)CCOCC2)NC1=O)C(=O)O [compound 389, cPEG3aCO-Pen(3)-K(PEG2PEG2gEC12)-T-7MeW-K(PEG2PEG2gEC12)-Pen(3)-TMAPF-2Nal-THP-K(NMeAc)-N-3Pya-Sar-CON(Me)2] ({Me3N+(CH2)2O(CH2)2O(CH2)2CO}-[Pen]K([AEEA-AEEA-γGlu-Lauroyl])T[Trp(7-Me)]K([AEEA-AEEA-γGlu-Lauroyl])[Pen]Y(X3)[2Nal][Thp][Lys(Me)](Ac)N[3Pal][Sar]-NMe2; disulfide 1-6) | 390 nM | 185 A^2
7 | CC(=O)N(C)CCCC[C@@H]1NC(=O)[C@H](Cc2c[nH]c3c(C)cccc23)NC(=O)[C@H]([C@@H](C)O)NC(=O)[C@H](CC(=O)N(C)C)NC(=O)[C@@H](NC(=O)CCOCCNC(=N)N)C(C)(C)SSC(C)(C)[C@@H](C(=O)N[C@@H](Cc2ccc(OCCCCC[N+](C)(C)C)cc2)C(=O)N[C@@H](Cc2ccc3ccccc3c2)C(=O)NC2(C(=O)N[C@@H](CCCCN(C)C(C)=O)C(=O)N[C@@H](CC(N)=O)C(=O)N[C@@H](Cc3cccnc3)C(=O)N(C)CC(=O)N(C)C)CCOCC2)NC1=O [compound 390, cPEG2gCO-Pen(3)-N(N(Me)2)-T-7MeW-K(NMeAc)-Pen(3)-TMAPF-2Nal-THP-K(NMeAc)-N-3Pya-Sar-CON(Me)2] (X31-[Pen]D(NMe2)T[Trp(7-Me)][Lys(Me)](Ac)[Pen]Y(X3)[2Nal][Thp][Lys(Me)](Ac)N[3Pal][Sar]-NMe2; disulfide 1-6) | 1.2 nM | 148 A^2
8 | CC(=O)N(C)CCCC[C@@H]1NC(=O)[C@H](Cc2c[nH]c3c(C)cccc23)NC(=O)[C@H]([C@@H](C)O)NC(=O)[C@H](CC(=O)N(C)C)NC(=O)[C@@H](NC(=O)CCOCCOCCNC(=N)N)C(C)(C)SSC(C)(C)[C@@H](C(=O)N[C@@H](Cc2ccc(OCCCCC[N+](C)(C)C)cc2)C(=O)N[C@@H](Cc2ccc3ccccc3c2)C(=O)NC2(C(=O)N[C@@H](CCCCN(C)C(C)=O)C(=O)N[C@@H](CC(N)=O)C(=O)N[C@@H](Cc3cccnc3)C(=O)N(C)CC(=O)N(C)C)CCOCC2)NC1=O [compound 391, cPEG3gCO-Pen(3)-N(N(Me)2)-T-7MeW-K(NMeAc)-Pen(3)-TMAPF-2Nal-THP-K(NMeAc)-N-3Pya-Sar-CON(Me)2] (X11-[Pen]D(NMe2)T[Trp(7-Me)][Lys(Me)](Ac)[Pen]Y(X3)[2Nal][Thp][Lys(Me)](Ac)N[3Pal][Sar]-NMe2; disulfide 1-6) | 1.5 nM | 158 A^2
